Laboratory results published in EP4043466B1, “PRC2 INHIBITORS” (Mirati Therapeutics, Inc., priority 2018, dated 2019).

What was measured:
[1] = tested on: PRC2-mediated histone H3 methylation; assay: Tri-Methyl Histone H3 (Lys 27) Sandwich ELISA in Pfeiffer cells: inhibition of PRC2-mediated histone H3 methylation; assay type: cell-based, human; conditions: Homo sapiens; Inhibition of EZH2-mediated histone H3 trimethylation; Pfeiffer cells (EZH2 A677G), 96 hours incubation
Procedure, shortened: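 Pfeiffer DLBCL cells (EZH2 A677G mutant) treated with 3-fold serial dilutions, 1µM to 0.15 nM final, for 96 hours at 37°C. Acid (0.4M HCl) histone extracts, neutralized, assayed by H3K27me3 sandwich ELISA with HRP/TMB read at 450 nm.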

Karpas 422 cells = assay: Karpas 422 cell viability, CTG (Cell Titre Glo) assay; assay type: cell-based, human; conditions: Homo sapiens; Inhibition of proliferation of Karpas 422 cells (EZH2 Y641N); viability measured Day 4, Day 7 or Day 11, time point of the tabulated values not stated
Procedure, shortened: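 Karpas 422 cells (EZH2 Y641N, DLBCL) plated at 1000 cells/well in RPMI with 20% FBS, exposed to compound 10µM down to 1.5nM in 3-fold steps at 37 °C. Viability by CellTiter-Glo on Days 4, 7 and 11; Day 11 plates re-fed with fresh medium and compound on Day 7. IC50 per time point.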

[2] = target: purified human, His-tagged PRC2 complex (Homo sapiens, UniProt O75530+Q15910); assay: Hot Spot HMT assay: inhibition of PRC2 enzymatic activity (transfer of tritiated methyl from SAM to core histone, filter binding); assay type: biochemical; conditions: Inhibition of PRC2-mediated enzymatic activity; 10 nM PRC2 complex, 0.05 mg/ml core histone H3, 1 uM 3H-SAM, 1 hr at 30°C
Procedure, shortened: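 Five-subunit complex (His-EZH2, Flag-EED, His-SUZ12, His-AEBP2, His-RbAp48) at 10 nM with 0.05 mg/ml core histone H3, pH 8 Tris buffer, 1% DMSO; 20 min compound pre-incubation at 30°C. Started with 1 uM [3H]-SAM, 1 hr at 30°C; tritiated H3 counted by scintillation. Compounds diluted from 1.0 µM top concentration.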

Chain of purified human, His-tagged PRC2 complex (Q15910 whole entry): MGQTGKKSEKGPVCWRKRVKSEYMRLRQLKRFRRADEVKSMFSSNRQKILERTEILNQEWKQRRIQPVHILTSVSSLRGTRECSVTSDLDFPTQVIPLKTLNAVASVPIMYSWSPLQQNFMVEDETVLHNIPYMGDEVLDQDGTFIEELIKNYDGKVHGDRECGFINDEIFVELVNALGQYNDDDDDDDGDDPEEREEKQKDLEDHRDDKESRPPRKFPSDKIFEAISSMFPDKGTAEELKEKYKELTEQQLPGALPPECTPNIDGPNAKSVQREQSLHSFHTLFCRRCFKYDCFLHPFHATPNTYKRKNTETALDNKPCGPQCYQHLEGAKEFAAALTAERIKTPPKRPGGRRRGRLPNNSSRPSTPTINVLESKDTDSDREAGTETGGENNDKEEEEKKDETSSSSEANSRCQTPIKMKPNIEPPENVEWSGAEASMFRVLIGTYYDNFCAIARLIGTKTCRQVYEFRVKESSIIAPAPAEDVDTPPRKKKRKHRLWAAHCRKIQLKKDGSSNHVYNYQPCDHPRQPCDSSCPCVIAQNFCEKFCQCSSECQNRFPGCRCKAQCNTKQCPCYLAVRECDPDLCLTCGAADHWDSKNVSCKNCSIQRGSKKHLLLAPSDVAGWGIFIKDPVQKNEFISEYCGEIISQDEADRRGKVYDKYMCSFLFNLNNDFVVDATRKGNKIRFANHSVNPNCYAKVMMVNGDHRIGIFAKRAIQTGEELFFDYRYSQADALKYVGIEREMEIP
Chain of purified human, His-tagged PRC2 complex (O75530 whole entry): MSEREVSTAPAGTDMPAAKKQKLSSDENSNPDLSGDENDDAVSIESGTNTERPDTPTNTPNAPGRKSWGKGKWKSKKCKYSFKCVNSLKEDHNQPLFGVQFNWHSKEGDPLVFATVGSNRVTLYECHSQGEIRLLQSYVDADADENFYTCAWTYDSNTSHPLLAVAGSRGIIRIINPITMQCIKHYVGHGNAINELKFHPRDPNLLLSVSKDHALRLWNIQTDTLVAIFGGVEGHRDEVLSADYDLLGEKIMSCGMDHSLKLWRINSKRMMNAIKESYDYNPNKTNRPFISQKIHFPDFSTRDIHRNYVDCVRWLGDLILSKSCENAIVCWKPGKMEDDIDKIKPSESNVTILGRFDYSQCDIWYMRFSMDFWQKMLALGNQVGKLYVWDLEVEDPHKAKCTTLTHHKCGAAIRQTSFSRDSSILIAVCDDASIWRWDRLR
Chain of purified human, His-tagged PRC2 complex (Q15022 whole entry partner): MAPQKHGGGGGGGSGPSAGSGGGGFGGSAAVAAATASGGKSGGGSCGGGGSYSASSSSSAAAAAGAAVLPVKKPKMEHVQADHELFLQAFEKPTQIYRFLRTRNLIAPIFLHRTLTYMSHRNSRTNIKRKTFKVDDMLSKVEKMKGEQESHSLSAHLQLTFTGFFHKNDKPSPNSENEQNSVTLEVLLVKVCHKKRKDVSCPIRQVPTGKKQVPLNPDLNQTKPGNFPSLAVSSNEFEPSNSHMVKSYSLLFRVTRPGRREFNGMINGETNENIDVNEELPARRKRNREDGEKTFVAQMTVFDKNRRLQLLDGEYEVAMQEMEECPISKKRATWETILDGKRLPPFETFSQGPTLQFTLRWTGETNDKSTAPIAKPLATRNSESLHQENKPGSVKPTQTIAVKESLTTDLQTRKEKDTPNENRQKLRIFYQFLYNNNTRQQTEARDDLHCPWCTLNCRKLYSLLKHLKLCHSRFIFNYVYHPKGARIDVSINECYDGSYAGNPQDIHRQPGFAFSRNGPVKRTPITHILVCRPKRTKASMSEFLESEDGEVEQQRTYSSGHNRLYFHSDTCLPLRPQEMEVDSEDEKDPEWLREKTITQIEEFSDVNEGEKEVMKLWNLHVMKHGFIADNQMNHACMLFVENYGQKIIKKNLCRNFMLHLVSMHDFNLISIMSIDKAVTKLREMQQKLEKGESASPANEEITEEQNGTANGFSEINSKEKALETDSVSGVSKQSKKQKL
Chain of purified human, His-tagged PRC2 complex (Q6ZN18 whole entry partner): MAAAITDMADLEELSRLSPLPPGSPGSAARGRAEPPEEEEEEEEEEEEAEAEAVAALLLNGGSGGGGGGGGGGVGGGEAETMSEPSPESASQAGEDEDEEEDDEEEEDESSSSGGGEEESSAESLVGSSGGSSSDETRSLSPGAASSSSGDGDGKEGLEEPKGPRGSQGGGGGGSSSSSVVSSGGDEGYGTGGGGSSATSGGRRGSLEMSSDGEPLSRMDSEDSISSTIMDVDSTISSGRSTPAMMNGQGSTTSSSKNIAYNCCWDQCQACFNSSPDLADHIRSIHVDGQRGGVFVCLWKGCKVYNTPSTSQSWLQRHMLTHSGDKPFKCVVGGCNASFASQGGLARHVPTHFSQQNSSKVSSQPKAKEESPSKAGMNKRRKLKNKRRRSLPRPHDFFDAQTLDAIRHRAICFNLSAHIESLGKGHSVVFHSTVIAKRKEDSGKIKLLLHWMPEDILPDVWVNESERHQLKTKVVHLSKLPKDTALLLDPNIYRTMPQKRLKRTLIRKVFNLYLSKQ
Chain of purified human, His-tagged PRC2 complex (Q09028 whole entry partner): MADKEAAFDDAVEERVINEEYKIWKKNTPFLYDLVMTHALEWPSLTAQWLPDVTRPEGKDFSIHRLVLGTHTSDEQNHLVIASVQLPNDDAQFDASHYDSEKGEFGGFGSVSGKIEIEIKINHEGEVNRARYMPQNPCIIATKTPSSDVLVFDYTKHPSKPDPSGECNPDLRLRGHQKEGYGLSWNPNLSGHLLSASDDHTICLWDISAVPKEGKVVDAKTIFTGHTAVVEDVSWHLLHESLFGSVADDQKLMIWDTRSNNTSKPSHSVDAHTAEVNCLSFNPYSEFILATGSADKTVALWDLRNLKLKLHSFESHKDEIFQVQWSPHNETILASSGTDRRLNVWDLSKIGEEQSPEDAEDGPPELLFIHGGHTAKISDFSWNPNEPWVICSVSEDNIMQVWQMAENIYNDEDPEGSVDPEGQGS

Row | IC50 [1] [nM] | IC50 (Karpas 422 cells) [nM] | IC50 [2] [nM] | Structure (SMILES)
1 | 100 to 500 | ≤ 250 | < 100 | COC(=O)c1cc(-c2cnc(NCc3c(F)ccc4c3CCO4)n3cc(C#N)nc23)n(C)n1 [Example 169, methyl 5-(2-cyano-5-(((5-fluoro-2,3-dihydrobenzofuran-4-yl)methyl)amino)imidazo[1,2-c]pyrimidin-8-yl)-1-methyl-1H-pyrazole-3-carboxylate]
2 | ≤ 100 | ≤ 250 | < 100 | CN(C)C(=O)c1cc(-c2cnc(NCc3c(F)ccc4c3CCO4)n3cc(C#N)nc23)n(C)n1 [Example 170, 5-(2-cyano-5-(((5-fluoro-2,3-dihydrobenzofuran-4-yl)methyl)amino)imidazo[1,2-c]pyrimidin-8-yl)-N,N,1-trimethyl-1H-pyrazole-3-carboxamide]
3 | 100 to 500 | ≤ 250 | < 100 | CN(C)C1(c2ccc(-c3cnc(NCc4c(F)ccc5c4CCO5)n4cc(C#N)nc34)cc2)CC1 [Example 171, 8-(4-(1-(dimethylamino)cyclopropyl)phenyl)-5-(((5-fluoro-2,3-dihydrobenzofuran-4-yl)methyl)amino)imidazo[1,2-c]pyrimidine-2-carbonitrile]
4 | 100 to 500 | 250 to 500 | < 100 | N#Cc1cn2c(NCc3c(F)ccc4c3CCO4)ncc(-c3ccc4c(c3)CCNC4=O)c2n1 [Example 172, 5-(((5-fluoro-2,3-dihydrobenzofuran-4-yl)methyl)amino)-8-(1-oxo-1,2,3,4-tetrahydroisoquinolin-6-yl)imidazo[1,2-c]pyrimidine-2-carbonitrile]
5 | ≤ 100 | ≤ 250 | < 100 | [2H]C([2H])(c1ccc(-c2cnc(NCc3c(F)ccc4c3CCO4)n3cc(C#N)nc23)c(C)c1)N(C)C [Example 173, 8-(4-((dimethylamino)methyl-d2)-2-methylphenyl)-5-(((5-fluoro-2,3-dihydrobenzofuran-4-yl)methyl)amino)imidazo[1,2-c]pyrimidine-2-carbonitrile]
6 | > 500 | > 500 | < 100 | N#Cc1cn2c(NCc3c(F)ccc4c3CCO4)ncc(-c3cccc(C(=O)O)c3)c2n1 [Example 174, 3-(2-cyano-5-(((5-fluoro-2,3-dihydrobenzofuran-4-yl)methyl)amino)imidazo[1,2-c]pyrimidin-8-yl)benzoic acid]
7 | > 500 | 250 to 500 | 100 to 500 | Cc1ccc(-c2cnc(NCc3c(F)ccc4c3CCO4)n3cc(C#N)nc23)cc1 [Example 175, 5-(((5-fluoro-2,3-dihydrobenzofuran-4-yl)methyl)amino)-8-(p-tolyl)imidazo[1,2-c]pyrimidine-2-carbonitrile]
8 | 100 to 500 | 250 to 500 | < 100 | Cc1c(C#N)cccc1-c1cnc(NCc2c(F)ccc3c2CCO3)n2cc(C#N)nc12 [Example 176, 8-(3-cyano-2-methylphenyl)-5-(((5-fluoro-2,3-dihydrobenzofuran-4-yl)methyl)amino)imidazo[1,2-c]pyrimidine-2-carbonitrile]
9 | 100 to 500 | > 500 | < 100 | CC(O)Cn1cc(-c2cnc(NCc3c(F)ccc4c3CCO4)n3cc(C#N)nc23)cn1 (stereo not drawn) [Example 179, 5-(((5-fluoro-2,3-dihydrobenzofuran-4-yl)methyl)amino)-8-(1-(2-hydroxypropyl)-1H-pyrazol-4-yl)imidazo[1,2-c]pyrimidine-2-carbonitrile]
10 | ≤ 100 | ≤ 250 | < 100 | CN(C)C(=O)c1ccc(-c2cnc(NCc3c(F)ccc4c3CCO4)n3cc(C#N)nc23)cc1 [Example 180, 4-(2-cyano-5-(((5-fluoro-2,3-dihydrobenzofuran-4-yl)methyl)amino)imidazo[1,2-c]pyrimidin-8-yl)-N,N-dimethylbenzamide]
11 | 100 to 500 | ≤ 250 | < 100 | N#Cc1cn2c(NCc3c(F)ccc4c3CCO4)ncc(-c3ccc(C(=O)N4CCOCC4)cc3)c2n1 [Example 181, 5-(((5-fluoro-2,3-dihydrobenzofuran-4-yl)methyl)amino)-8-(4-(morpholine-4-carbonyl)phenyl)imidazo[1,2-c]pyrimidine-2-carbonitrile]
12 | 100 to 500 | ≤ 250 | 100 to 500 | N#Cc1cn2c(NCc3c(F)ccc4c3CCO4)ncc(-c3cnn(CCO)c3)c2n1 [Example 182, 5-(((5-fluoro-2,3-dihydrobenzofuran-4-yl)methyl)amino)-8-(1-(2-hydroxyethyl)-1H-pyrazol-4-yl)imidazo[1,2-c]pyrimidine-2-carbonitrile]

Further lines, the compound ahead of its results:

Row | Structure (SMILES) | IC50 [1] [nM] | IC50 (Karpas 422 cells) [nM] | IC50 [2] [nM]
13 | N#Cc1cn2c(NCc3c(F)ccc4c3CCO4)ncc(-c3ccn(CC4CCCO4)n3)c2n1 (stereo not drawn) [Example 153, 5-(((5-fluoro-2,3-dihydrobenzofuran-4-yl)methyl)amino)-8-(1-((tetrahydrofuran-2-yl)methyl)-1H-pyrazol-3-yl)imidazo[1,2-c]pyrimidine-2-carbonitrile] | 100 to 500 | 250 to 500 | 100 to 500
14 | Cn1cccc(-c2cnc(NCc3c(F)ccc4c3CCO4)n3cc(C#N)nc23)c1=O [Example 156, 5-(((5-fluoro-2,3-dihydrobenzofuran-4-yl)methyl)amino)-8-(1-methyl-2-oxo-1,2-dihydropyridin-3-yl)imidazo[1,2-c]pyrimidine-2-carbonitrile] | > 500 | > 500 | 100 to 500
15 | COCCOc1ccc(-c2cnc(NCc3c(F)ccc4c3CCO4)n3cc(C#N)nc23)cn1 [Example 158, 5-(((5-fluoro-2,3-dihydrobenzofuran-4-yl)methyl)amino)-8-(6-(2-methoxyethoxy)pyridin-3-yl)imidazo[1,2-c]pyrimidine-2-carbonitrile] | 100 to 500 | 250 to 500 | 100 to 500
16 | CN1CCc2cc(-c3cnc(NCc4c(F)ccc5c4CCO5)n4cc(C#N)nc34)ccc2C1 [Example 159, 5-(((5-fluoro-2,3-dihydrobenzofuran-4-yl)methyl)amino)-8-(2-methyl-1,2,3,4-tetrahydroisoquinolin-6-yl)imidazo[1,2-c]pyrimidine-2-carbonitrile] | ≤ 100 | ≤ 250 | 100 to 500
17 | CN1CCCC1c1ccc(-c2cnc(NCc3c(F)ccc4c3CCO4)n3cc(C#N)nc23)cc1 (stereo not drawn) [Example 160, 5-(((5-fluoro-2,3-dihydrobenzofuran-4-yl)methyl)amino)-8-(4-(1-methylpyrrolidin-2-yl)phenyl)imidazo[1,2-c]pyrimidine-2-carbonitrile] | ≤ 100 | ≤ 250 | < 100
18 | COCCOc1ccc(-c2cnc(NCc3c(F)ccc4c3CCO4)n3cc(C#N)nc23)cc1 [Example 161, 5-(((5-fluoro-2,3-dihydrobenzofuran-4-yl)methyl)amino)-8-(4-(2-methoxyethoxy)phenyl)imidazo[1,2-c]pyrimidine-2-carbonitrile] | 100 to 500 | ≤ 250 | < 100
19 | N#Cc1cn2c(NCc3c(F)ccc4c3CCO4)ncc(-c3ccc(C4CCCO4)cc3)c2n1 (stereo not drawn) [Example 162, 5-(((5-fluoro-2,3-dihydrobenzofuran-4-yl)methyl)amino)-8-(4-(tetrahydrofuran-2-yl)phenyl)imidazo[1,2-c]pyrimidine-2-carbonitrile] | 100 to 500 | 250 to 500 | < 100
20 | CN(C)CCc1ccc(-c2cnc(NCc3c(F)ccc4c3CCO4)n3cc(C#N)nc23)cc1 [Example 163, 8-(4-(2-(dimethylamino)ethyl)phenyl)-5-(((5-fluoro-2,3-dihydrobenzofuran-4-yl)methyl)amino)imidazo[1,2-c]pyrimidine-2-carbonitrile] | 100 to 500 | ≤ 250 | < 100
21 | CCOP(=O)(OCC)c1ccc(-c2cnc(NCc3c(F)ccc4c3CCO4)n3cc(C#N)nc23)cc1 [Example 164, diethyl (4-(2-cyano-5-(((5-fluoro-2,3-dihydrobenzofuran-4-yl)methyl)amino)imidazo[1,2-c]pyrimidin-8-yl)phenyl)phosphonate] | ≤ 100 | ≤ 250 | < 100
22 | COC(=O)c1ccc(-c2cnc(NCc3c(F)ccc4c3CCO4)n3cc(C#N)nc23)cn1 [Example 166, methyl 5-(2-cyano-5-(((5-fluoro-2,3-dihydrobenzofuran-4-yl)methyl)amino)imidazo[1,2-c]pyrimidin-8-yl)picolinate] | > 500 | 250 to 500 | < 100
23 | COC(=O)c1ccc(-c2cnc(NCc3c(F)ccc4c3CCO4)n3cc(C#N)nc23)cc1 [Example 167, methyl 4-(2-cyano-5-(((5-fluoro-2,3-dihydrobenzofuran-4-yl)methyl)amino)imidazo[1,2-c]pyrimidin-8-yl)benzoate] | > 500 | ≤ 250 | 100 to 500
24 | CN1CCc2cc(-c3cnc(NCc4c(F)ccc5c4CCO5)n4cc(C#N)nc34)ccc2C1=O [Example 168, 5-(((5-fluoro-2,3-dihydrobenzofuran-4-yl)methyl)amino)-8-(2-methyl-1-oxo-1,2,3,4-tetrahydroisoquinolin-6-yl)imidazo[1,2-c]pyrimidine-2-carbonitrile] | 100 to 500 | ≤ 250 | < 100
